Laboratory results as given in ChEMBL document CHEMBL5380878, “A beginner's guide to current synthetic linker strategies towards VHL-recruiting PROTACs” (Bioorg Med Chem, 2023).

Key:
Assay type in all cases: cell-based
[1] = biological target: von Hippel-Lindau disease tumor suppressor/Bromodomain-containing protein 4 (Homo sapiens, UniProt O60885+P40337); assay: PROTAC activity in VHL/BRD4 in human MV4-11 cells assessed as induction of BRD4 degradation by Western blot analysis
[2] = biological target: von Hippel-Lindau disease tumor suppressor/Cyclin-dependent kinase 6 (Homo sapiens) (UniProt Q00534+P40337); assay: PROTAC activity at VHL/CDK6 in human MV4-11 cells assessed as CDK6 degradation by measuring maximal efficacy by Western blot analysis
[3] = biological target: von Hippel-Lindau disease tumor suppressor/Cyclin-dependent kinase 6 (Homo sapiens, UniProt P40337+Q00534); assay: PROTAC activity at VHL/CDK6 in human MV4-11 cells assessed as induction of CDK6 degradation by Western blot analysis
[4] = biological target: T1, von Hippel-Lindau disease tumor suppressor/Receptor-type tyrosine-protein kinase FLT3 (Homo sapiens, UniProt P36888+P40337); assay: PROTAC activity at VHL/FLT3 in human MV4-11 cells assessed as FLT3 degradation by measuring maximal efficacy by Western blot analysis relative to control
Target sequence in this assay (P36888 27-993 limits assumed): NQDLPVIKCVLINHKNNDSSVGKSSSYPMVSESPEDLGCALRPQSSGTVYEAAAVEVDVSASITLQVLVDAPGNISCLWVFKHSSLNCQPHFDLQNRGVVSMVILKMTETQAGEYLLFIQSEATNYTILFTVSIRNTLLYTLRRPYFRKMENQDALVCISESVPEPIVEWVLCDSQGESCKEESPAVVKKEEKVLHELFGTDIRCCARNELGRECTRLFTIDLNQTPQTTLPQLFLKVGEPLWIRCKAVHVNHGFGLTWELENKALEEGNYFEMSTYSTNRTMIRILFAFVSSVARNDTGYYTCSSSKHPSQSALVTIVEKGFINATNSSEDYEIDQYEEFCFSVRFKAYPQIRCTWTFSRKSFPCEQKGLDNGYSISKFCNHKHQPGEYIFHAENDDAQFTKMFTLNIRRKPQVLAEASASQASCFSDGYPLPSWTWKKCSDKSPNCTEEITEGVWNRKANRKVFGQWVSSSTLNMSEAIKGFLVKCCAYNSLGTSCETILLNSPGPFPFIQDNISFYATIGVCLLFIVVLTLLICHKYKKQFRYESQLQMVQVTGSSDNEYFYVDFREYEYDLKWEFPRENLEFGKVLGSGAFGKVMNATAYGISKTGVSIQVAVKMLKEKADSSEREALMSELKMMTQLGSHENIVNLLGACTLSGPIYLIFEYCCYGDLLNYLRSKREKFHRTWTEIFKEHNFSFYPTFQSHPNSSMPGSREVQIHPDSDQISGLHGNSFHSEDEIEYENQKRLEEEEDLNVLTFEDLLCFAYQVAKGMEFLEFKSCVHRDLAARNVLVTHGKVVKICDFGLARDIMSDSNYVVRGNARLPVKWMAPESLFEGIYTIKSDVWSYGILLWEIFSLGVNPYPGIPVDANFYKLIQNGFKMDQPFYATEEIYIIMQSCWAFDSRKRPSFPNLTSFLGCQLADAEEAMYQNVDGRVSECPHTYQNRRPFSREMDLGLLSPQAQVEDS
Target sequence in this assay (P40337 whole entry partner): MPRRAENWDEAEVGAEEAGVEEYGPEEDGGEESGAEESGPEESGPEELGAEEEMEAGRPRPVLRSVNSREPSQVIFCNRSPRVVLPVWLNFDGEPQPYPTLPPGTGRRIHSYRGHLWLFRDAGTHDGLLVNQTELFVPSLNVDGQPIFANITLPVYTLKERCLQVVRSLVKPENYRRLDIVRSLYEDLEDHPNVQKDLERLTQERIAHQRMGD

[5] = biological target: T1, von Hippel-Lindau disease tumor suppressor/Receptor-type tyrosine-protein kinase FLT3; assay: PROTAC activity at VHL/FLT3 in human MV4-11 cells assessed as induction of FLT3 degradation by Western blot analysis
[6] = biological target: von Hippel-Lindau disease tumor suppressor/Leucine-rich repeat serine/threonine-protein kinase 2 (Homo sapiens) (UniProt Q5S007+P40337); assay: PROTAC activity at VHL/LRRK2 in human MV4-11 cells assessed as LRRK2 degradation by measuring maximal efficacy by Western blot analysis relative to control
[7] = biological target: von Hippel-Lindau disease tumor suppressor/Leucine-rich repeat serine/threonine-protein kinase 2 (Homo sapiens, UniProt P40337+Q5S007); assay: PROTAC activity at VHL/LRRK2 in human MV4-11 cells assessed as induction of LRRK2 degradation by Western blot analysis
von Hippel-Lindau disease tumor suppressor/Leucine-rich repeat serine/threonine-protein kinase 2, sequence (Q5S007 whole entry): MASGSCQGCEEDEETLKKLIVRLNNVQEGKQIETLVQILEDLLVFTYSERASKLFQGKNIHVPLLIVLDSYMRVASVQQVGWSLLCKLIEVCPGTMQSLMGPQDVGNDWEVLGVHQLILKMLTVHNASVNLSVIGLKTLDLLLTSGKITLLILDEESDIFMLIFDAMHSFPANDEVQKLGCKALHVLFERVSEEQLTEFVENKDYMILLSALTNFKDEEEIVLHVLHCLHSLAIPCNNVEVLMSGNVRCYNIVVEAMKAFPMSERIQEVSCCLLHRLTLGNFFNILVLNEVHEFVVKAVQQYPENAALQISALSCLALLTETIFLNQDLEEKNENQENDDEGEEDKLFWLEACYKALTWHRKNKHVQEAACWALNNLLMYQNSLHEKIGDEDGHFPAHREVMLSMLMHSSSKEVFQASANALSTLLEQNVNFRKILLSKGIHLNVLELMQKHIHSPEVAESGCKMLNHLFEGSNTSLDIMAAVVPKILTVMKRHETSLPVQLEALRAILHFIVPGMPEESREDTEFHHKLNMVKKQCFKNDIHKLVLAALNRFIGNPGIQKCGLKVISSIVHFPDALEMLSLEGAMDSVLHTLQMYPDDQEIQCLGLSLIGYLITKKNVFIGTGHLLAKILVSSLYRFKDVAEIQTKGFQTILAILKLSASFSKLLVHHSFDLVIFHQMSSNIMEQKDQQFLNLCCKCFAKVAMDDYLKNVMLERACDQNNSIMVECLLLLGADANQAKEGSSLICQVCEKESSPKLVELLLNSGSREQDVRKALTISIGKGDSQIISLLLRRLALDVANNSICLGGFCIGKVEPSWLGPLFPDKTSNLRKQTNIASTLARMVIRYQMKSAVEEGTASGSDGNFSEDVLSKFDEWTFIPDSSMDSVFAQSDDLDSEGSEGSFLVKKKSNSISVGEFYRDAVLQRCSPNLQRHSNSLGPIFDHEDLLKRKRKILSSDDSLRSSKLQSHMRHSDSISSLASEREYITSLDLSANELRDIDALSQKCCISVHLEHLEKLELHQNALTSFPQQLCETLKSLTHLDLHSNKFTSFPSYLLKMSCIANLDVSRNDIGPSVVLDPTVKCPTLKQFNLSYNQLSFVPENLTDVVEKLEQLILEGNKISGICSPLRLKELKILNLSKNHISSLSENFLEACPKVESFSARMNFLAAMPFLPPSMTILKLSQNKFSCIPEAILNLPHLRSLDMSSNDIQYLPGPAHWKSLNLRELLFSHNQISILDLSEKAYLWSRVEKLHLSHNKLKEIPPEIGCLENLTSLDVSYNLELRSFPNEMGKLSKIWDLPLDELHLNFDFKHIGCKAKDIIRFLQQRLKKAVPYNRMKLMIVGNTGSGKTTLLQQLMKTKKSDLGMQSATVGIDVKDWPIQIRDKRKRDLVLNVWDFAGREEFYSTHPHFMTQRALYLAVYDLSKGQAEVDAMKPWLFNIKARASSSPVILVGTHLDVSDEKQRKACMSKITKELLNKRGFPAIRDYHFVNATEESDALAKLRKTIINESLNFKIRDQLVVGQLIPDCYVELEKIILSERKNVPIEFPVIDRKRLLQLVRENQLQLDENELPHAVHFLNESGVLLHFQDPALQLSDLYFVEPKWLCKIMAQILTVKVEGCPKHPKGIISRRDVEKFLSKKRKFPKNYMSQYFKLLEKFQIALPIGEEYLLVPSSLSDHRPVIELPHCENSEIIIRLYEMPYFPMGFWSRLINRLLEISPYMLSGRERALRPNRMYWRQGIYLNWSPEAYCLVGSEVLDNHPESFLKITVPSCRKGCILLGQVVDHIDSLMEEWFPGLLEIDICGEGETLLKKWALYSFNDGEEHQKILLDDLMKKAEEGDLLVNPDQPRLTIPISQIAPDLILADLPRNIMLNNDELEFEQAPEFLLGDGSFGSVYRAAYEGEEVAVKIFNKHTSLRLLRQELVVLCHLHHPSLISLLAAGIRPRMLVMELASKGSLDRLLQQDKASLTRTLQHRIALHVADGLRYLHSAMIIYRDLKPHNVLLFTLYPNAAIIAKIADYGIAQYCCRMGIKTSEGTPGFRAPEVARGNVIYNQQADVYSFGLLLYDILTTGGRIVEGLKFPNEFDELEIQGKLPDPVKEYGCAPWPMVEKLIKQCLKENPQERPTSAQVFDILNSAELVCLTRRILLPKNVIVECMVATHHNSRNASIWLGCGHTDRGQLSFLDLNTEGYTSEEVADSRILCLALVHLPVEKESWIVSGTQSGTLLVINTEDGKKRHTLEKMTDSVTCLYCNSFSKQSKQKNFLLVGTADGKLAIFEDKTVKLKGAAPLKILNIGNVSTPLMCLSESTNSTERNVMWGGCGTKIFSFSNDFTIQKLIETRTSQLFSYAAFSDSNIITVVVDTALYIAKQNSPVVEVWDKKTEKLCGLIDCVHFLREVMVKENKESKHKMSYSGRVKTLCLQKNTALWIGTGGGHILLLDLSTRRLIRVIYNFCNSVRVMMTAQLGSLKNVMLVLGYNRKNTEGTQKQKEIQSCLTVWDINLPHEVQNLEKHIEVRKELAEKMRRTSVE
von Hippel-Lindau disease tumor suppressor/Leucine-rich repeat serine/threonine-protein kinase 2, sequence (P40337 whole entry): as the sequence (P40337 whole entry partner) above

von Hippel-Lindau disease tumor suppressor/Bromodomain-containing protein 4, sequence (P40337 whole entry, looked up, other chains not shown): as the sequence (P40337 whole entry partner) above
von Hippel-Lindau disease tumor suppressor/Leucine-rich repeat serine/threonine-protein kinase 2 (Homo sapiens), sequence (P40337 whole entry, looked up): as the sequence (P40337 whole entry partner) above
von Hippel-Lindau disease tumor suppressor/Leucine-rich repeat serine/threonine-protein kinase 2 (Homo sapiens), sequence (Q5S007 whole entry, looked up): as the sequence (Q5S007 whole entry) above
von Hippel-Lindau disease tumor suppressor/Cyclin-dependent kinase 6 (Homo sapiens), sequence (P40337 whole entry, looked up): as the sequence (P40337 whole entry partner) above
von Hippel-Lindau disease tumor suppressor/Cyclin-dependent kinase 6 (Homo sapiens), sequence (Q00534 whole entry, looked up): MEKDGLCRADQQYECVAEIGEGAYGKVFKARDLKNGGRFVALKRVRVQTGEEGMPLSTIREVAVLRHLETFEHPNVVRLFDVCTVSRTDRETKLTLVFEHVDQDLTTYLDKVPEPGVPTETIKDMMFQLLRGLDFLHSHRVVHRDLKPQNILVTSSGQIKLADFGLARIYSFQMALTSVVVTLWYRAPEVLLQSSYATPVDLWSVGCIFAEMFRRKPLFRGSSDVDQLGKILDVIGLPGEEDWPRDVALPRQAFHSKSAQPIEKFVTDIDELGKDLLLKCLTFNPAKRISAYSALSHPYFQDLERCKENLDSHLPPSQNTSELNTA
von Hippel-Lindau disease tumor suppressor/Cyclin-dependent kinase 6, sequence (Q00534 whole entry): as the sequence (Q00534 whole entry, looked up) above
von Hippel-Lindau disease tumor suppressor/Cyclin-dependent kinase 6, sequence (P40337 whole entry): as the sequence (P40337 whole entry partner) above

## Cc1cc([C@H](C(=O)N2C[C@H](O)C[C@H]2C(=O)N[C@@H](C)c2ccc(-c3scnc3C#CCOCCOCCOCCOCCNC(=O)C[C@@H]3N=C(c4ccc(Cl)cc4)c4c(sc(C)c4C)-n4c(C)nnc43)cc2)C(C)C)on1
[1]
  EC50: 16 nM

## CC(=O)c1c(C)c2cnc(Nc3ccc(N4CCN(CCOCCOCCOc5cc(-c6scnc6C)ccc5CNC(=O)[C@@H]5C[C@@H](O)CN5C(=O)[C@@H](NC(=O)C5(F)CC5)C(C)(C)C)CC4)cn3)nc2n(C2CCCC2)c1=O
[2]
  Emax: 95%
[3]
  EC50: 5.1 nM

## Cc1ncsc1-c1ccc(CNC(=O)[C@@H]2C[C@@H](O)CN2C(=O)[C@@H](NC(=O)CCOCCOCCOc2ccc3c(c2)sc2nc(-c4ccc(NC(=O)Nc5cc(C(C)(C)C)on5)cc4)cn23)C(C)(C)C)cc1
[4]
  Emax: 90%
[5]
  EC50: < 5 nM

## CNc1nc(Nc2ccc(C(=O)N3CCN(C[C@H]4CC[C@H](CSC(C)(C)[C@H](NC(=O)C5(F)CC5)C(=O)N5C[C@H](O)C[C@H]5C(=O)NCc5ccc(-c6scnc6C)cc5)CC4)CC3)cc2OC)ncc1Cl
[6]
  Emax: > 82%
[7]
  EC50: 15 nM
